Experimental data as given in PMC11760891, “Discovery and Characterization of Two Selective Inhibitors for a Mu-Class Glutathione S-Transferase of 25 kDa from Taenia solium Using Computational and Bioinformatics Tools” (Biomolecules, 2024).

Columns and labels:
Ts25GST = molecular target: T1, Ts25GST (Taenia solium, UniProt Q8MWS0); test: GSH-CDNB conjugation, absorbance […] nm, dose-response; type: biochemical
T1 construct: about 25 kDa on SDS-PAGE; dimer; no tag mentioned
T1 sequence (Q8MWS0 1-219): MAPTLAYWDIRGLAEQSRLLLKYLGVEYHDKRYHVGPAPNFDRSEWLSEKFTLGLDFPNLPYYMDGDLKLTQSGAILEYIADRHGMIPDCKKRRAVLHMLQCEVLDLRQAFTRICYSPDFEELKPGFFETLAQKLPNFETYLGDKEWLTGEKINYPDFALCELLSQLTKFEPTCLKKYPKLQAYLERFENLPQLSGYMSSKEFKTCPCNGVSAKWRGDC

HGSTM1 = molecular target: T2, HGSTM1 (Homo sapiens, UniProt P09488); test: GSH-CDNB conjugation, absorbance […] nm, single concentration; type: biochemical
T2 construct: gene GSTM1; commercial human GST M1 (Oxford Biomedical Research GS65)
T2 sequence (P09488 2-218): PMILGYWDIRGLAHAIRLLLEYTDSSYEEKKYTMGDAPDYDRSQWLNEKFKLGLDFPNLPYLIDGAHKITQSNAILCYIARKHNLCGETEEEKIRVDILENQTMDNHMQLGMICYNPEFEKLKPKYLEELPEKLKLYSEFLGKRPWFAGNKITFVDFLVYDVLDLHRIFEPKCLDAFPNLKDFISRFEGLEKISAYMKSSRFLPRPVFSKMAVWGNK

SMILES | IC50 (Ts25GST) [µM] | inhibition at 40 µM (HGSTM1) [%]
O=C(CCN1C(=O)c2ccccc2C1=O)Nc1ccc(Nc2ccccc2)cc1 [i15] | 25.7 ± 1.1 | 30.8 ± 1.9
O=C(CSc1ncc(-c2ccccc2)nn1)NC1=NN=C(c2ccccc2)CS1 [i11] | – | 33.4 ± 2.2
